Data reported in US20250114313A1, “OLIGO-BENZAMIDE ANALOGS AND THEIR USE IN CANCER TREATMENT” (BOARD OF REGENTS, THE UNIVERSITY OF TEXAS SYSTEM, priority 2022, published 2025).

Assays:
[1] = system: ovarian cancer PDX (OCa-PDX-38); test: Ovarian cancer PDX OCa-PDX-38; assay type: in vivo, NSG mice; conditions: 10 mg/kg daily
Protocol: Animal Studies: All animal experiments were performed using UTHSA and UTSW IACUC approved protocols. For cell based xenograft tumor assays, TNBC cells (2×10^5-2×10^6) were mixed with an equal volume of matrigel and implanted in the mammary fat pads of 6-week-old female athymic nude mice as described^33. BALB/c mice were used for D2A1 syngeneic model. Once tumors reached measurable size, mice were divided into control (vehicle) and ERX-41 (10 mg/kg/oral) treatment groups. Mice bearing TNBC PDX tumors were purchased from Jackson laboratory (TM00089; TM00096; TM00098). TNBC PDX line UTPDX0001 establishment was earlier described^38. WHIM-20 ER+PDX model was purchased from Horizon Labs. OCa-PDX-38 was received from UTHSA ObGyn tissue procurement core. When tumors reached ˜750 mm^3 they were dissected into 2 mm^3 pieces and implanted into the mammary fat pads of 6 weeks old female SCID or NSG mice. When the tumor volume reached ˜200 mm^3, mice were randomized for treatment. The mice were monitored daily for adverse toxic effects and tumor volume was measured every 3-4 days using calipers. For establishing ES2 tumors, ES2/GFP/LUC cells were injected i.p. and tumors were measured twice a week using Xenogen in vivo imaging system. […] The mice were monitored daily for adverse toxic effects. […] The sections were scored by two independent evaluators blinded to the patient's clinical status.

SUM-159 cells = test: CellTiter-Glo, SUM-159 WT cells (mCherry-RAMP4); assay type: cell-based; conditions: Homo sapiens, SUM159; SUM-159 stably transfected mCherry-RAMP4, CellTiter-Glo
Protocol: (§1) Cell viability assays: Cells were seeded in 96-well plates (2×10^3 cells/well) one day before the treatment. Cells were treated with varying concentrations of ERX-41 or ERX-11 analogs for 3-6 days. Then effects of ERX-41 or ERX-11 analogs on cell viability were measured in triplicate or sextuplicate with multiple biological replicates using the WST-1 (Promega), MTT as previously described^33 or CellTiter-Glo 2.0 (Promega) assays.

[2] = system: SUM-159 cells with LIPA KO; test: CellTiter-Glo, SUM-159 LIPA KO cells; assay type: cell-based; conditions: Homo sapiens, SUM159; SUM-159 stably transfected mCherry-RAMP4, CellTiter-Glo
Protocol: as §1
Lentiviral constructs cloning: LentiCRISPRv2 vector was used for CRSPR KO experiments. sgRNAs, which were chosen from human CRISPR knockout pooled library, were cloned into lentiCRISPRv2 vector^34. Human LIPA cDNA (GenBank: BC012287) or mouse LIPA cDNA (NM_021460) were clone into pWPI for over expression experiments. For TurboID experiment, the LIPA-TurboID sequence was cloned into pCW57-MCS1-2A-MCS2 vector. LentiCRISPR v2 was purchased from Addgene (Addgene #52961; //n2t.net/addgene:52961; RRID:Addgene_52961) (via Feng Zhang). pWPI was purchased from Addgene (Addgene #12254; //n2t.net/addgene:12254; RRID:Addgene_12254) (via Didier Trono). pCW57-MCS1-2A-MCS2 was purchased from Addgene (#71782) (via Adam Karpf). Human LIPA gene is referred as LIPA, while mouse LIPA gene is referred as mLIPA in this disclosure. […]

LIPA KO SUM-159 cells = test: Live cell confocal imaging of ER tubule width, SUM-159 LIPA KO; assay type: cell-based, Human; conditions: 1 μM
Protocol: Live cell confocal and Airyscan imaging: To visualize ER structure, stable SUM-159 cell lines expressing mCherry-RAMP4 were established. pLenti-X1-hygro-mCherry-RAMP4 was purchased from Addgene (Addgene #118391; //n2t.net/addgene:118391; RRID:Addgene_118391) (via Jacob Corn).^35 The live cell images were acquired by Confocal Zeiss LSM880 Airyscan. ER tubule width was calculated by drawing 1px-wide line scans perpendicular to the long axis of individual ER tubules. In MATLAB, the peak intensity along each line scan was determined and the distance between the half maximum intensity on either side of the peak was measured. The code for this analysis is available at: //github.com/andmoo91/HalfMaxScript.

LAL = test: Biotinylated compound pull down of LAL from SUM-159 lysates; assay type: binding, Human
Protocol: The lysate was incubated with biotinylated-ERX-11 or biotinylated-ERX-41 overnight, followed by one-hour incubation with M-270 streptavidin Dynabeads. After four times of washes with lysis buffer, samples were eluted by boiling in 2× Laemmli sample buffer. Bound proteins were resolved in SDS-PAGE followed by western blotting.

[3] = system: MDA-MB-231 cells with LIPA KO; test: CellTiter-Glo response of MDA-MB-231 knockout clones; assay type: cell-based, Human
Protocol: as §1
CRISPR Screen: Human Brunello CRISPR knockout pooled library was purchased from Addgene (Addgene #73178) (via David Root and John Doench). The library containing lentivirus was transduced into cells in biological replicates or triplicates at a multiplicity of infection (MOI) of ˜0.5 and a minimum of 500× coverage. Two days later after transduction, uninfected cells were removed with puromycin selection. The library containing cells was treated with vehicle or ERX-41 for 2 weeks. Genomic DNA was extracted from same number of cells. The sgRNA cassette retrieved by PCR, followed by Next Generation Sequencing (NGS). NGS data was analyzed by MAGeCK (Li et al., Genome Biology, 2014 PMID: 25476604).
Lentiviral constructs cloning: LentiCRISPRv2 vector was used for CRSPR KO experiments. sgRNAs, which were chosen from human CRISPR knockout pooled library, were cloned into lentiCRISPRv2 vector^34. […]

[4] = system: 21 human preclinical TNBC cell line models; test: CellTiter-Glo cell viability, TNBC cell lines; assay type: cell-based; conditions: 21 TNBC cell lines, read-out: anti-proliferative IC50, CellTiter-Glo
Protocol: as §1

[5] = system: SUM-159 clones with LIPA KO; test: Live cell imaging with SYTOX Green, SUM-159 LIPA KO; assay type: cell-based, Human; conditions: 1 μM
Protocol: Live cell imaging: Live cell images were acquired by Lionheart FX automated microscope (BioTek). Cells were plated one day before the experiment. For cell death assay, 0.2 μM SYTOX Green was added into the plate 15 min before the experiment.

With `CC(C)COc1cc(C(=O)Nc2ccc(C(=O)N[C@H]3CC[C@H](C)CC3)cc2OCC(C)C)ccc1NC(=O)c1ccc([N+](=O)[O-])c(OCCO)c1` [ERX-41] as the compound, how does the “activity against OCa-PDX-38” value [1] read?
The value was “has activity against”.

What about the IC50 (SUM-159 cells) of the same compound?
Its IC50 is about 200 nM.

And the IC50 [2]?
The IC50 was about 4000 nM.

And the “ER tubule diameter in LIPA KO cells” value (LIPA KO SUM-159 cells)?
The value was “no significant changes in ER tubule diameter”.

And the “pulldown of LIPA constructs” value (LAL; biotinylated ERX-41, WT, H274Y, ΔLXXLL, L242P)?
Its value is “interaction between ERX-41 and proteins encoded by WT-LIPA and H274Y MT-LIPA but not ΔLXXLL MT-LIPA or L242P MT-LIPA”.

And the “binding to LAL in TNBC cells” value (LAL; biotinylated compound, streptavidin pull down)?
Its value is “binds to LAL”.

What about the “effect of LIPA knockout on cytotoxic response” value [3] of the same compound?
The value was “abrogate the cytotoxic response to ERX-41”.

What about the IC50 [4] of the same compound?
The IC50 was under 250 nM.

What about the “cell death in SUM-159 with LIPA KO” value [5] of the same compound?
The value was “dramatic decrease in cell death”.
